These results are taken from ChEMBL document CHEMBL1201862, “PubChem BioAssay data set” (2004).

Assay [1] is described as follows: general mammalian cell viability loss – inhibitor set, cherry-pick, set 2, cytotoxicity control for miR-122 modulator project, dose response (AID 720697). Type of assay: functional, cell-based.
Assay [2] is described as follows: activation of miR-122 Renilla sensor silencing – cell-based, Huh7 psiCHECK-miR122, Renilla luciferase, cherry-picked, dose response (AID 651956).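 Note: huh7 hepatoma cells stably carrying a psiCHECK-2 miR-122 sensor plasmid; renilla luciferase signal reporting endogenous miR-122 activity after 48 h compound exposure.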 Type of assay: functional.
The target in assay [3] is T1, Replicative DNA helicase DnaB (Mycobacterium tuberculosis, UniProt P9WMR3).
T1 sequence (P9WMR3 whole entry): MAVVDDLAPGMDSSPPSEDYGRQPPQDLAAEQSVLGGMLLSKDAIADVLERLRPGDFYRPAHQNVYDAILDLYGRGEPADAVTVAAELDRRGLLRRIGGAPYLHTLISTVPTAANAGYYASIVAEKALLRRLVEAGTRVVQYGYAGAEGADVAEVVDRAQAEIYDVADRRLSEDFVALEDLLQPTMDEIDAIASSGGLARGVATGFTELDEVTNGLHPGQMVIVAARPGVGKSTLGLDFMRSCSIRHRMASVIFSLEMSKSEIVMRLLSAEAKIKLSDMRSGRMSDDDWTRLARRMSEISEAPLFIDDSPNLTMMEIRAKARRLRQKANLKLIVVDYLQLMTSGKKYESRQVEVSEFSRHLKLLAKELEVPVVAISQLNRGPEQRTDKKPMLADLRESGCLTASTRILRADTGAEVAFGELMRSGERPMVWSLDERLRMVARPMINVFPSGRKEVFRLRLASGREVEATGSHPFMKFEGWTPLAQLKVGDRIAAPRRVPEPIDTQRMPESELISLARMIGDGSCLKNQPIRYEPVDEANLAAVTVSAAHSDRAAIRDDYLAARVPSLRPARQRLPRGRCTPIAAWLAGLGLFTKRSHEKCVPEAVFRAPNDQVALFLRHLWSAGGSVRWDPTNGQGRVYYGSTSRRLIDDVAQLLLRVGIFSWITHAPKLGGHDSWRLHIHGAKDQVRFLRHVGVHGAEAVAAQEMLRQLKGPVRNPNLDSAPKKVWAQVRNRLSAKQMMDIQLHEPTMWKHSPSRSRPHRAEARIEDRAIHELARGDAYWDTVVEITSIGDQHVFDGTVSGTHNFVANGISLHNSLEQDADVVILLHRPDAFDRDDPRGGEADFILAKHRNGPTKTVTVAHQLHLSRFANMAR
Nature of the assay: DnaB intein splicing inhibitors, dose response, biochemical, cell-free fluorescence (AID 449749). Type of assay: functional.

In another assay the target is T2, Protein RecA (Mycobacterium tuberculosis, UniProt P9WHJ3).
T2 sequence (P9WHJ3 whole entry): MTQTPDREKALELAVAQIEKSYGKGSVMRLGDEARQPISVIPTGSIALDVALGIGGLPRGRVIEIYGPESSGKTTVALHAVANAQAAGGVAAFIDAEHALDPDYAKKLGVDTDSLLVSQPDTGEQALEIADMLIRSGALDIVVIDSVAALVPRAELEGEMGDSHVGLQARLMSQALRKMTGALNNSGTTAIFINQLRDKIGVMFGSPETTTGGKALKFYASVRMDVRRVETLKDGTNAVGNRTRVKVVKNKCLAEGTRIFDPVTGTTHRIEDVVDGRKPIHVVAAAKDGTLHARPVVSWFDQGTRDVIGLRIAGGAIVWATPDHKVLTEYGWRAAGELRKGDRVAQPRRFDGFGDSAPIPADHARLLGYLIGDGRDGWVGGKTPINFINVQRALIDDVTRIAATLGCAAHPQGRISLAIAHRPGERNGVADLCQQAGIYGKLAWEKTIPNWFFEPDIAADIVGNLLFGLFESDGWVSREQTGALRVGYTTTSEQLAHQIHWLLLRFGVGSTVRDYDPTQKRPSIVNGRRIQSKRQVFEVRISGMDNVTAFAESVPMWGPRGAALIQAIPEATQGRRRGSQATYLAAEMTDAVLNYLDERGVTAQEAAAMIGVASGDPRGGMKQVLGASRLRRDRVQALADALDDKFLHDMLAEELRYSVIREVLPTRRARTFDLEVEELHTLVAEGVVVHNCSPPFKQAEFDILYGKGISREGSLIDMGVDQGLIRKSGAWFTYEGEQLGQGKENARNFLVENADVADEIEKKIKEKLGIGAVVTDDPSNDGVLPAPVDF
The assay can be described thus: Fluorescence Cell-Free Homogeneous Dose Retest to Identify Inhibitors of RecA-Intein Splicing Activity. [Related pubchem assays (depositor defined):AID2097, AID2223, AID489010, AID492950]. Type of assay: functional.

The target of assay [4] is T3, Tyrosyl-DNA phosphodiesterase 2 (Homo sapiens, UniProt O95551).
T3 sequence (O95551 whole entry): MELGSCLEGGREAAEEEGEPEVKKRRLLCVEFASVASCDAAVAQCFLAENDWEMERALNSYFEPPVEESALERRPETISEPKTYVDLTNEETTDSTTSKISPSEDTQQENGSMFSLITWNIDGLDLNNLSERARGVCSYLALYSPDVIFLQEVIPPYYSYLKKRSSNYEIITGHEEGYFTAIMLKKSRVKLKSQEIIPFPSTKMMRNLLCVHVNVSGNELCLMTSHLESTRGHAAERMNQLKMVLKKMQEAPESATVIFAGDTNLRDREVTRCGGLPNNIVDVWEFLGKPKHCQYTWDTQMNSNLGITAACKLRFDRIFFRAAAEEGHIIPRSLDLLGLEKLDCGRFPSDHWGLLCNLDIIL
Nature of the assay: potency against TDP2 phosphodiesterase activity – biochemical, epi absorbance, IC50, dose response (AID 743297).

A short description of assay [5]: cells. The note with it: HEK-CNG. The format is functional, cell-based.
The next assay has as its target T4, Galanin receptor type 3 (Homo sapiens, UniProt O60755).
T4 sequence (O60755 whole entry): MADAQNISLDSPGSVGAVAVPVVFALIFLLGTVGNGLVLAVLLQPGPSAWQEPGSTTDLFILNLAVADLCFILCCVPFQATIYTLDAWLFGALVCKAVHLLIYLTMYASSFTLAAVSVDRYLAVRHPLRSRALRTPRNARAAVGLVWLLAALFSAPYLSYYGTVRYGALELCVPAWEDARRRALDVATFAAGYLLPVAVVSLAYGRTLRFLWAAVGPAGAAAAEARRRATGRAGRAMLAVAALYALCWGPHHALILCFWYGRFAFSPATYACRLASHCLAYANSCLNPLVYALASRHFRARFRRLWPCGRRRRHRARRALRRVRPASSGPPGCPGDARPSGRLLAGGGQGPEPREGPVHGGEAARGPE
Nature of the assay: Fluorescence-based cell-based primary high throughput dose response assay to identify antagonists of the Galanin Receptor 3 (GalR3). Type of assay: functional.

Assay [6] can be described thus: blockers of HIV-1 ZM109 envelope-driven cell-cell fusion – HeLa effector, CEM target cells, luciferase, cherry-pick, dose response (AID 652058).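 Note: luciferase signal from HIV-1 Env mediated cell-cell fusion of effector and target cells.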 The format is functional, cell-based.
The nature of assay [7]: off-target signal loss in HeLa-CEM21 co-culture – HeLa F-luc CTL cells, cherry-picked, counter-screen for HIV-1 Env fusion inhibitor project, dose response (AID 652040).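 Note: potency for signal decrease marking cytotoxic or nonspecific inhibition.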 Type of assay: functional, cell-based.
Assay [8] can be described thus: HIV-1 AD8 envelope cell-cell fusion blockers – cherry-pick, dose response (AID 652062).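 Note: luciferase signal from cell-cell fusion driven by HIV-1 clade B AD8 Env; potency is for inhibitors of fusion seen as a drop in luminescence.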 The format is functional, cell-based.
The nature of assay [9]: blockers of HIV-1 envelope-mediated cell-cell fusion – cherry-pick, dose response (AID 652057). Type of assay: functional, cell-based.
Assay [10] can be described thus: general mammalian cell viability loss – activator set, cherry-pick, cytotoxicity control for miR-122 modulator project, dose response (AID 720690).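 Note: HEK293T human cells scored for general mammalian cytotoxicity.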 Type of assay: functional, cell-based.
The target in assay [11] is T5, Calpain-2 catalytic subunit (Sus scrofa, UniProt P43367).
T5 sequence (P43367 whole entry): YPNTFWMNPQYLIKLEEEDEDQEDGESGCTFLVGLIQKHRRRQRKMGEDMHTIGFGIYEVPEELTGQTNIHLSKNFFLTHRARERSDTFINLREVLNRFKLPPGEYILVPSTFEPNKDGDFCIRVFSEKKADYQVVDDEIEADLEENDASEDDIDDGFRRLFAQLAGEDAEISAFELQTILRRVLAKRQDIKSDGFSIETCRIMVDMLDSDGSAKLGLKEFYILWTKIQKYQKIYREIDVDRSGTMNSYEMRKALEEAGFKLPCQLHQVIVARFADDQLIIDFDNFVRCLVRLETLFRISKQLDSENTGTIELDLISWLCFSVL
Nature of the assay: m-calpain protease blockers, concentration series – biochemical, fluorogenic peptide substrate, dose response (AID 1420). The format is functional.

A short description of assay [12]: cells. The format is functional, cell-based.
A short description of assay [13]: cells. The format is functional, cell-based. This is another data set of the same source.
In a further assay the test system is HeLa. Nature of the assay: viability loss in HeLa cells – cell-based, ATP luminescence, cherry-pick samples, cytotoxicity control, dose response (AID 687004). Type of assay: functional. The note with it: Homo sapiens.
Assay [14] has as its target T6, Heat shock factor protein 1 (Mus musculus, UniProt P38532).
T6 sequence (P38532 whole entry): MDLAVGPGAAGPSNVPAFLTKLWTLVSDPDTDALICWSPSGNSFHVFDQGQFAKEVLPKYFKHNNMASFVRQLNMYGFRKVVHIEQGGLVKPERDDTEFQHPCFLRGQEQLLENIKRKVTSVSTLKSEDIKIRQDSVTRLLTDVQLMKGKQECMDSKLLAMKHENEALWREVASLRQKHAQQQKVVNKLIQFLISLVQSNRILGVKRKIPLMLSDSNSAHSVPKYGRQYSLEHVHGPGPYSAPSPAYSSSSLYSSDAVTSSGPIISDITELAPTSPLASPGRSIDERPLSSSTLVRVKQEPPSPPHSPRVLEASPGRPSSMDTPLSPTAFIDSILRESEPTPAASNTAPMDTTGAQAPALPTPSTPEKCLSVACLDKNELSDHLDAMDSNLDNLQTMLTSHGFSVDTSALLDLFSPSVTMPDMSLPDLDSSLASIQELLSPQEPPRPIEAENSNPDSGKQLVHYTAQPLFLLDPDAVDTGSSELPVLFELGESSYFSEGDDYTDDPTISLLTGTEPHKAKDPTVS
Nature of the assay: decrease of HSF1-responsive luciferase luminescence – cell-based, NIH3T3, dose retest, confirmation (AID 2382).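 Note: NIH3T3 fibroblasts with HSF1-driven luciferase reporter stressed by proteasome inhibitor MG132; luminescence from HSF1-driven luciferase expression after 8 hours of MG132 stress.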 Type of assay: functional.

For assay [15], the target named is Voltage-dependent T-type calcium channel subunit alpha-1H (Homo sapiens, UniProt O95180). The format is functional.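 Note: channel activity triggered by adding a high calcium stimulation buffer.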
Assay [16] is described as follows: viability of HCT116 lacking mutant beta-catenin – cell-based, human colon tumor, dose response (AID 1045).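 Note: HCT116 colon tumor cells with beta catenin knocked out; cells exposed to compound for 60 hours.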 Type of assay: functional.
The nature of assay [17]: viability of PTEN-deleted HCT116 cells – cell-based, HCT116 PTEN knockout, dose response (AID 1047).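 Note: HCT116 colon tumor cells with PTEN knocked out; cells exposed to compound for 60 hours before readout; potency for loss of cell viability measured by luminescence.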 Type of assay: functional.
A short description of assay [18]: viability loss in CEM21 cells – cell-based, CellTiter-Glo luminescence, cherry-picked, cytotoxicity control for viral fusion inhibitor project, dose response (AID 652042).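 Note: potency for signal decrease meaning cytotoxicity.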 Type of assay: functional.

The structures appear in SMILES notation. Active and inactive are the calls of the source.

Voltage-dependent T-type calcium channel subunit alpha-1H, sequence (O95180 whole entry): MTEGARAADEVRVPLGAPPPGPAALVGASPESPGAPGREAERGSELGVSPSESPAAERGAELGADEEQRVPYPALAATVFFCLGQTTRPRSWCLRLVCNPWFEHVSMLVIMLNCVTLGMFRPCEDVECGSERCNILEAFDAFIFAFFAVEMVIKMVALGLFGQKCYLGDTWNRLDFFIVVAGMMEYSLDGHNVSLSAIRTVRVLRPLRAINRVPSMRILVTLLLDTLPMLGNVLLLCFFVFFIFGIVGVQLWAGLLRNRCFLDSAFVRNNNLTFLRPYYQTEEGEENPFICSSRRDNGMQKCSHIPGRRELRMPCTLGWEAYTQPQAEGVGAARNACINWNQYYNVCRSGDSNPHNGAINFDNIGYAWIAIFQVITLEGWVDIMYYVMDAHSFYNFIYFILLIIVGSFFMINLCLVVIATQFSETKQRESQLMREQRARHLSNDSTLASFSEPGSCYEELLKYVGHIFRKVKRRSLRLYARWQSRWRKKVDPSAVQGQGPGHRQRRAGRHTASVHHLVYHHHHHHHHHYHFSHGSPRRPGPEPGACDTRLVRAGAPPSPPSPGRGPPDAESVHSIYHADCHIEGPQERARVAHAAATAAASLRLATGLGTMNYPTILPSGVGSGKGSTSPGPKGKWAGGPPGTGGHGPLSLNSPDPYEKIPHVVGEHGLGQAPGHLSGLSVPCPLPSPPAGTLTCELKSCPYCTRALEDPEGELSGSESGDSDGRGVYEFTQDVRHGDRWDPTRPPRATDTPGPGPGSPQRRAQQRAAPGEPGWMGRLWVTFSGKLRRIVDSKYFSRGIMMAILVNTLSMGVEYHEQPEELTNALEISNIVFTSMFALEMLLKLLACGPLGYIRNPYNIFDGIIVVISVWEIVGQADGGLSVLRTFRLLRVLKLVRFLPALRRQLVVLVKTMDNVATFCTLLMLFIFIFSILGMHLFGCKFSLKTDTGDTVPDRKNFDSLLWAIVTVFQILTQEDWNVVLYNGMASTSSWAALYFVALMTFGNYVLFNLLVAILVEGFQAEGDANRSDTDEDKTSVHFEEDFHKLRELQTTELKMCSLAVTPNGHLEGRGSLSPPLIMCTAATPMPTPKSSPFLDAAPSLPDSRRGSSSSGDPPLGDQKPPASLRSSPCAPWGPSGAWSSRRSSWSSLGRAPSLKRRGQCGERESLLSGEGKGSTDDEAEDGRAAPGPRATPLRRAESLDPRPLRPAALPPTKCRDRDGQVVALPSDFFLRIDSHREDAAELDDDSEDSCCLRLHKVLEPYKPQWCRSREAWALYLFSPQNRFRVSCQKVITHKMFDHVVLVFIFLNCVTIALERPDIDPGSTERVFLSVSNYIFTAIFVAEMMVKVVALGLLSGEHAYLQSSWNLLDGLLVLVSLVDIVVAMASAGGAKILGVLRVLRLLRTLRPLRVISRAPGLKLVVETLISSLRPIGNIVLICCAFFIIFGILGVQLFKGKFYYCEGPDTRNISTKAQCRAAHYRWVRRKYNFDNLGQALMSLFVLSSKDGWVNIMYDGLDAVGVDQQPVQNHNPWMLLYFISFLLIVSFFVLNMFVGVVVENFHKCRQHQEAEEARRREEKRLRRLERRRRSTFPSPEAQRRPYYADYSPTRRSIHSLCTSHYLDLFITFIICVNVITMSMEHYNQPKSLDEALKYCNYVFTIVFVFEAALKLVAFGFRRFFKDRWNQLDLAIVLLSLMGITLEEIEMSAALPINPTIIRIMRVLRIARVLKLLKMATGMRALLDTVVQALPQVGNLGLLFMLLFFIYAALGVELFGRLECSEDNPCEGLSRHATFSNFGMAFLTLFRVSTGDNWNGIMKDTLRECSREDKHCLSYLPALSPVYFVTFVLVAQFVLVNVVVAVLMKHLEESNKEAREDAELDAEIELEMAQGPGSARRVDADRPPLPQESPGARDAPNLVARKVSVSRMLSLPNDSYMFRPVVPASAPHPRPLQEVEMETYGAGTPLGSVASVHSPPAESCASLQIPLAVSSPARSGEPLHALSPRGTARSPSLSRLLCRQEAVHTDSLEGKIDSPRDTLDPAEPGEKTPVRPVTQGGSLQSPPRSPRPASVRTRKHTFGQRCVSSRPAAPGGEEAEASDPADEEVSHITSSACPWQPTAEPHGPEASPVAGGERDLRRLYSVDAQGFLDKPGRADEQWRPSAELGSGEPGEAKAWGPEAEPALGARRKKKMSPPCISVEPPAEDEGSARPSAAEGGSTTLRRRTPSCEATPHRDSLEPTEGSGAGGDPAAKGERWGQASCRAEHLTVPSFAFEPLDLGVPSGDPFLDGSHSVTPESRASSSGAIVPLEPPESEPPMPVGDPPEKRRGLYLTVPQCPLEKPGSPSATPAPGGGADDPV

On to `C[C@@H]1CN([C@@H](C)CO)S(=O)(=O)c2ccc(-c3ccc(C(=O)N(C)C)cc3)cc2O[C@@H]1CN(C)C(=O)C1CCC1`, for which the concentration at half-maximal activity (AC50) in assay [1] was 0.516 µM (active); in [2], 13.8 µM (active).

As to `COc1cc(/C=C2/C(=O)N(c3ccc([N+](=O)[O-])cc3)N=C2N2CCOCC2)ccc1O`, the concentration at half-maximal activity (AC50) in [3] was 19.7 µM (active). In addition, the EC50 at Protein RecA is 6.68 µM (active). Besides, in assay [4], the IC50 is > 128 µM (inactive).

Regarding `COc1cc(CCC(=O)OCC(=O)Nc2sccc2C(N)=O)cc(OC)c1OC`, the EC50 in “cells [5]” was > 29.9 µM (inactive). In addition, the IC50 on Galanin receptor type 3 is 1.55 µM (active).

Turning to `COc1ccc(Cn2nnnc2C(c2cc3cccc(C)c3nc2O)N2CCOCC2)cc1` (centres undefined), the AC50 in assay [6] was 5.44 µM (active); in assay [7], 7.1 µM (active); in assay [8] it was 6.17 µM (active); in assay [9] it was 6.52 µM (active).

Regarding `COc1ccccc1-c1ccc2c(c1)O[C@@H](CN(C)S(=O)(=O)c1ccc(F)cc1)[C@@H](C)CN([C@@H](C)CO)S2(=O)=O`, the AC50 in assay [10] was 42.4 µM (active).

Take `O=C(NCCc1ccccc1)c1cnc2n(c1=O)CCS2`: the figures for the IC50 (in [11]; in the assay “cells [12]”) were 24.2 µM (not active) and > 29.9 µM (inactive), respectively. Also, the EC50 in “cells [13]” was > 29.9 µM (inactive).

For `COC(=O)C1=C(C)N(Cc2ccccc2)C(=S)N[C@H]1c1cccc(C(F)(F)F)c1`, the AC50 in the assay with HeLa was > 52 µM (inactive).

As to `N#Cc1c(N)nc2c3c(sc(=N)c2c1N)NC(=O)CC3c1ccccc1` (centres undefined), the figures for the EC50 (in “cells [5]”; in [14]) were > 29.9 µM (inactive) and > 195 µM (not active), respectively. Moreover, at Galanin receptor type 3, the IC50 was > 29.9 µM (inactive).

On to `Cc1ccc(OCC(O)Cn2c(=N)n(Cc3ccccc3)c3ccccc32)cc1` (centres undefined), for which the figures for the AC50 in [1] and in assay [10] were 7.65 µM (active) and 14.4 µM (active), respectively. For the same compound, the 50% effective concentration (EC50) in assay [15] was 4.11 µM (active); in [16], 4.31 µM (active); in assay [17] it was 4.53 µM (active).

Regarding `NC(c1csc(NC(=O)Nc2cccc(Cl)c2)n1)c1ccccc1Cl` (centres undefined), the half-maximal activity concentration (AC50) in assay [6] was 16.2 µM (active); in assay [7], 29.4 µM (active); in assay [8] it was 28.5 µM (active); in assay [9], 11.9 µM (active); in [18] it was 16.4 µM (active).
